Earlier results as cited in patent US8822429B2, “Citicoline for the treatment of glaucoma and ocular hypertension” (Omikron Italia S.r.l., priority 2010, dated 2014).

Conditions: taken orally

C[N+](C)(C)CCOP(=O)(O)OP(=O)([O-])OC[C@H]1O[C@@H](n2ccc(N)nc2=O)[C@H](O)[C@@H]1O [Citicoline, cytidine-5′-diphosphocholine]
excreted in the feces: less than 1%
time of plasma peak after ingestion (first peak): 1 h
time of second, larger plasma peak (larger peak following the first): 24 h
